Experimental data: ChEMBL document CHEMBL1123169, “Structurally specific binding of halogenated biphenyls to thyroxine transport protein” (J Med Chem, 1986)

What was measured:
[1] = molecular target: Transthyretin (Homo sapiens) (UniProt P02766); experiment: Concentration at which 50% total binding to prealbumin protein.
[2] = molecular target: Transthyretin (Homo sapiens) (UniProt P02766)
Description: Relative binding affinity to prealbumin was determined from the competition binding assays and is expressed relative to L-T4
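Wherever Binding affinity is given: competition binding to prealbumin, with affinity given relative to L-T4 as the reference ligand.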

| Compound | Concentration [1] | Binding affinity [2] |
| --- | --- | --- |
| O=C(O)c1cc(I)c(-c2cc(I)c(O)c(I)c2)c(I)c1 | 0.87 nM | 1150 |
| Clc1cc(Cl)cc(-c2cc(Cl)cc(Cl)c2)c1 |  | 411 |
| Oc1c(Cl)cc(-c2ccccc2)cc1Cl |  | 851 |
| Oc1c(Cl)cc(Cl)cc1-c1ccccc1 |  | 28 |
| NC(Cc1cc(I)c(-c2cc(I)c(O)c(I)c2)c(I)c1)C(=O)O (racemic) | 3 nM | 331 |
| N[C@@H](Cc1cc(I)c(Oc2cc(I)c(O)c(I)c2)c(I)c1)C(=O)O |  | 100 |
| Oc1ccc(-c2c(Cl)cc(Cl)cc2Cl)cc1 |  | 46 |
| Oc1c(-c2cc(Cl)c(Cl)c(Cl)c2)cc(Cl)c(Cl)c1Cl |  | 208 |
| Oc1c(Cl)cc(-c2ccc(Cl)cc2)cc1Cl |  | 501 |
| Clc1cc(-c2cc(Cl)c(Cl)c(Cl)c2)cc(Cl)c1Cl |  | 313 |
| Oc1ccc(-c2cc(Cl)c(Cl)c(Cl)c2Cl)cc1 |  | 286 |
| NC(Cc1ccc(Oc2cc(I)c(O)c(I)c2)c(I)c1)C(=O)O (configuration not stated) |  | 23 |
| N[C@@H](Cc1cc(I)c(Oc2ccc(O)c(I)c2)c(I)c1)C(=O)O |  | 2 |
| c1ccc(-c2ccccc2)cc1 |  | < 5 |
| Oc1ccc(-c2c(Cl)c(Cl)c(O)c(Cl)c2Cl)cc1 | 2.5 nM | 398 |
| Clc1cccc(Cl)c1-c1c(Cl)cccc1Cl |  | < 5 |
| Oc1c(Cl)cc(-c2cc(Cl)c(O)c(Cl)c2)cc1Cl | 1.5 nM | 661 |
| NC(Cc1cc(I)c(Oc2cc(I)c(O)c(I)c2)c(I)c1)C(=O)O (configuration not stated) |  | 63 |
